Test results published in article PMC13586308, “Cell type–selective targeting by heterobifunctional protein binders via in-cell enrichment” (Nature Communications, 2026).
Where two headings read alike, the source gives them in different places.

What was measured:
[1] = system: human myeloma cell lines (HMCL); assay: cell viability, panel of human myeloma cell lines +/- FKBP12 PROTAC; format: cell-based; details: all myeloma cell lines tested
[2] = cell uptake assay (LC-MS/MS) in MV4-11
[3] = in vitro metabolic study (intrinsic clearance); format: in vitro ADME; details: intrinsic clearance (Clint) study, rebuttal letter
Source text: 4.2. To strengthen the paper, the authors should consider conducting in vivo experiments to […]
a more comprehensive understanding of the therapeutic potential and pharmacokinetic […]
The current compounds were designed for mechanistic studies, not for in vivo experiments. To assess the possibility of animal studies we conducted an in vitro metabolic study for the two most advanced compounds (a1dj and b3c). […]
labile (see below). While we agree that it is exciting to explore the influence of the CellTrap effect on pharmacokinetic properties this must be explored in follow up studies, which require substantial medicinal chemistry optimization. With the current compounds we believe animal experiments are ethically not warranted.
4.3. Are there specific residues essential for the observed cooperativity? If so, empirically mapping these mutants and testing for a reduction in binding would help validate the structures and provide clues to the translatability of the CellTrap mechanism. […]
mediate the direct protein contacts to BRD4. To explore this, we measured binding of the homolog FKBP51, which differs in the loop/strand regions, to BRD4. […]
cooperativity for any compound, strongly supporting the relevance of the crystallographically observed contact. We discussed this in the text as:
In both ternary complexes, contacts to BRD4BD1 are formed by the tip of the so called 80s loop of […]

[4] = molecular target: T1, BRD4^BD1 (Homo sapiens, UniProt O60885); assay: competitive fluorescence polarization assay, BRD4 BD1 -/+ presenter protein; format: binding; details: for α BRD4^BD1 (binding cooperativity factor): ratio of binding in absence or presence of FKBP12
T1 construct: to the isolated BD1 and BD2 domains of BRD2, BRD3 and BRD4

[5] = system: MYC mRNA; assay: wash-off experiment, MYC mRNA in MV4-11; format: cell-based, human
[6] = system: gene expression; assay: RNA sequencing, MV4-11; format: cell-based, human; details: MV4-11, 6 h
Protocol: RNA was isolated using the Monarch Total RNA Isolation Kit. RNA quality was assessed using an Agilent TapeStation. All samples had calculated RINe values > 6 with a flat baseline. […] Samples were demultiplexed, and FastQ files were generated. Raw FASTQ reads were quality-filtered using fastp v1.3.2 to remove adapters, low-quality bases (Phred ≤ 5 in > 50% of read) and poly-N regions (> 10% N bases), retaining reads with Q20 ≥ 95% and Q30 ≥ 90%. GC content was calculated for clean reads. Filtered sequence reads were aligned to the human reference genome GRCh38 using HISAT2 v2.2.1, guided by GTF annotation. Mapped data were summarized on the gene level as Fragments Per Kilobase of transcript sequence per Millions base pairs sequenced (FPKM). Gene counts were quantified using featureCounts v2.0.6. Further data evaluation, normalization and pairwise differential expression analyses was done by DESeq2. For clustering, all differentially expressed genes were pooled as the differential gene set. FPKM values of genes were hierarchically clustered, rows were homogenized as Z-scores. For enrichment analysis of the differential expressed genes, cluster Profiler (Yu G, 2012) software was used on Gene Ontology (http://www.geneontology.org/) terms reflecting biological processes.

[7] = system: FKBP and BRD4 family members; assay: global proteomics after PROTAC treatment, MV4-11; format: cell-based, Homo sapiens
Protocol: Cell pellets equivalent to those used in the cell uptake assay were resuspended in 220 μL of 50 mM Tris pH 8.0, 2% SDS for 30 min at 850 rpm at RT, and centrifuged at 15000 g for 15 min. […] The supernatant was reduced with 5 mM DTT at 37 °C for 30 min then alkylated with 15 mM iodoacetamide at room temperature for 30 min in the dark. 150 μl of the solutions were subjected to a Protein Aggregation Capture digestion protocol using amine magnetic beads ([…]) and a King Fischer instrument (Thermo Scientific). In short, soluble proteins are captured on the magnetic beads and washed prior to the addition of 1/50 (w/w) trypsin (Promega) for an overnight digestion at 37 °C and 850 rpm. On the consecutive day, digested peptides are released, and the peptide concentration of the supernatants determined using a fluorimetric assay (Pierce). 200 ng peptide was loaded on Evotips (Evosep Biosystems). Peptides were separated on an Evosep One LC system coupled to a timsTOF Pro 2 instrument (Bruker) using a 30-sample-per-day method (44 min gradient). Peptides were resolved on an 8 cm, 1.5 μm x 150 μm Performance column (Evosep Biosystems). […] The relaxed-prot-inf option was used for library-free processing of the data. […] Match between runs (MBR) was enabled, and the normalization option switched on.

[8] = system: PNT1A cells; assay: CellTiter-Glo cell viability, PNT1A; format: cell-based; details: concentrations of up to 1 µM
[9] = system: PNT1A cells; assay: co-culture live cell microscopy cell count, PNT1A; format: cell-based; details: all concentrations
[10] = 15 µM FKBP51FK1, read-out: Binding to BRD4BD1 + FKBP51FK1 Kd
[11] = absence of FKBP12, 2 nM JQ1-FL tracer, read-out: Binding to BRD4^BD1 - FKBP12 Kd
[12] = absence of FKBP51FK1 (SI Table 3), read-out: Binding to BRD4BD1 - FKBP51FK1 Kd
[13] = presence of 15 µM FKBP12, read-out: Binding to BRD4^BD1 + FKBP12 Kd (converted)
[14] = values quoted in rebuttal letter (earlier version of Tab. 1), read-out: binding to BRD4BD1 + FKBP12

SMILES	cytotoxicity upon depletion of FKBP12 compared to JQ1 [1]	effect of prior BRD4 depletion on cellular compound levels ([2]; BRD4-degrading PROTAC 43)	concentration in the cellular fraction ([2]; MV4-11, 10 nM a1dj 2 h, mean across four independent experiments) [nM]	reduction of intracellular accumulation upon FKBP12 degradation by PROTAC 5a1, mean ([2]; MV4-11, 100 nM 5a1) [%]	approximated concentration in the cellular fraction ([2]; MV4-11, earlier manuscript version quoted in rebuttal) [µM]	additional cellular enrichment mediated by other FKBPs ([2]; abolished by competition with 10 µM 18-(S)Me) [%]	FKBP12-mediated share of cellular accumulation ([2]; abolished by prior FKBP12 depletion, earlier manuscript version quoted in rebuttal) [%]	in vitro metabolic stability [3]	Kd [4, 10] [nM]	Kd [4, 11] [nM]	Kd [4, 12] [nM]	Kd [4, 13] [nM]	α BRD4^BD1 (binding cooperativity factor) [4]	Kd [4, 14] [nM]	persistence of MYC repression after compound wash-out [5]	differentially expressed genes compared to JQ1-treated cells [6]	effect on BRD4 levels by global proteomics [7]	effect on PNT1A viability [8]	effect on PNT1A cells in co-culture [9]
Cc1sc2c(c1C)C(c1ccc(Cl)cc1)=NC(CC(=O)NCCOCCn1cc(COCC3CN(C(C)c4ccccn4)C(=O)C4CCCC3N4S(=O)(=O)c3cc(Cl)cc(Cl)c3)nn1)c1nnc(C)n1-2 (centres unmarked) [a1dj]	almost identical to JQ1	did not affect cellular compound levels	1680 ± 350	51	> 1.8	22	58	metabolically labile	680 ± 100	470 ± 60	250 ± 80	39	12	32	up to 24 h	about 300 genes	did not affect BRD4 levels	–	–
Cc1sc2c(c1C)C(c1ccc(Cl)cc1)=NC(CC(=O)N1CCC3(CC1)CC(n1cc(C4CN(Cc5ccccn5)C(=O)C5CCCC4N5S(=O)(=O)c4cc(Cl)cc(Cl)c4)nn1)C3)c1nnc(C)n1-2 (centres unmarked) [a13c]	–	–	–	–	–	–	–	–	870 ± 100	4600 ± 800	1500 ± 450	35	131	20	–	–	–	did not affect	unaffected
Cc1sc2c(c1C)C(c1ccc(C#CCNC(=O)COCCn3cc(C4CN(Cc5ccccn5)C(=O)C5CCCC4N5S(=O)(=O)c4cc(Cl)cc(Cl)c4)nn3)cc1)=NC(CC(=O)OC(C)(C)C)c1nnc(C)n1-2 (centres unmarked) [b3c]	–	–	–	–	–	–	–	metabolically labile	50 ± 17	130 ± 20	73 ± 20	8	16	–	–	about 300 genes	–	–	–
